Results published in PMC7486443, “Generation of Phenothiazine with Potent Anti-TLK1 Activity for Prostate Cancer Therapy” (iScience, 2020).

Tests used:
Test in all cases: biochemical
Set-up in all cases: DiscoverX KINOMEscan scanMAX competition binding panel, single concentration, percent of control; remaining binding: dose or concentration left out as unconfirmed
Conditions in all cases: KINOMEscan binding, percent of control; read-out: Table S4_SCANMAX REPORT - related to Fig. 1 / Percent Control
GSK3B = GSK3B (Homo sapiens, UniProt P49841)
IGF1R = IGF1R (Homo sapiens, UniProt P08069)
Sequence of IGF1R (P08069 whole entry): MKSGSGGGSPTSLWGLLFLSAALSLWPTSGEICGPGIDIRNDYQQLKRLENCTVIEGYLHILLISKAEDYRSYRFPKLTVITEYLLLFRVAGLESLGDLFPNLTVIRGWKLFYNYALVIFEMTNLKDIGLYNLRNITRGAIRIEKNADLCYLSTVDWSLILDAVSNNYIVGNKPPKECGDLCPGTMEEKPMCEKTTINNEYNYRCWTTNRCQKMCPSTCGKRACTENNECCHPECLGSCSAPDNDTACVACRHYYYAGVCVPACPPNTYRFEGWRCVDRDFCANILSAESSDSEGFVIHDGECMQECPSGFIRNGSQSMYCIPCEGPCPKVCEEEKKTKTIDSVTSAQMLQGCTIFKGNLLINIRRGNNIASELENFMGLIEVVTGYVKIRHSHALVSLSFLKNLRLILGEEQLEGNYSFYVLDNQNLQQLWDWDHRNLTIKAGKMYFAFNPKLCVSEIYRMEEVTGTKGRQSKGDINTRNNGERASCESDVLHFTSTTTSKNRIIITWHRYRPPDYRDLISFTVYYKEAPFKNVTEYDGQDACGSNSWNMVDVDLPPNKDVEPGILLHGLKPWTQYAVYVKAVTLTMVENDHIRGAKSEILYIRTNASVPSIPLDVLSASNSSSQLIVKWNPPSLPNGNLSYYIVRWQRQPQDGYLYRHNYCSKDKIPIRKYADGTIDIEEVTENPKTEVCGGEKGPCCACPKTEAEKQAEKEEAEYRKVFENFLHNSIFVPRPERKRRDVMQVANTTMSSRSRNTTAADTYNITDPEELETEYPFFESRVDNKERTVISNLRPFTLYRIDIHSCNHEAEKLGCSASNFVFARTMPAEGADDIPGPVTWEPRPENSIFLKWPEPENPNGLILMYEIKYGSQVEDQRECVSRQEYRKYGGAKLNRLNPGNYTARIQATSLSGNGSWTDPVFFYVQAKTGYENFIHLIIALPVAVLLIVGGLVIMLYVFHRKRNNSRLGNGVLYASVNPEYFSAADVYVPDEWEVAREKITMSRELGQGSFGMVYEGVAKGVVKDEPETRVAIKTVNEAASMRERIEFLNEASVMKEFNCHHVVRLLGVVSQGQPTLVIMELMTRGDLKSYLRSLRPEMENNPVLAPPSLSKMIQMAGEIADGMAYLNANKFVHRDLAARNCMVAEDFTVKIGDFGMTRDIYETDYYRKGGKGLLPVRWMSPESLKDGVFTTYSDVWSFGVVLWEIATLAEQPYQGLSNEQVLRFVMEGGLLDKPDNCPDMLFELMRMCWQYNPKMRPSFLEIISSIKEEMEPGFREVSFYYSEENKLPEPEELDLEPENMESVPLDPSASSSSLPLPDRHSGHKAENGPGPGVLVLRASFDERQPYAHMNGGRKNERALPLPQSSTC

EGFR(G719S) = EGFR(G719S) (Homo sapiens, UniProt P00533, G719S)
BTK = BTK (Homo sapiens, UniProt Q06187)
Sequence of BTK (Q06187 whole entry): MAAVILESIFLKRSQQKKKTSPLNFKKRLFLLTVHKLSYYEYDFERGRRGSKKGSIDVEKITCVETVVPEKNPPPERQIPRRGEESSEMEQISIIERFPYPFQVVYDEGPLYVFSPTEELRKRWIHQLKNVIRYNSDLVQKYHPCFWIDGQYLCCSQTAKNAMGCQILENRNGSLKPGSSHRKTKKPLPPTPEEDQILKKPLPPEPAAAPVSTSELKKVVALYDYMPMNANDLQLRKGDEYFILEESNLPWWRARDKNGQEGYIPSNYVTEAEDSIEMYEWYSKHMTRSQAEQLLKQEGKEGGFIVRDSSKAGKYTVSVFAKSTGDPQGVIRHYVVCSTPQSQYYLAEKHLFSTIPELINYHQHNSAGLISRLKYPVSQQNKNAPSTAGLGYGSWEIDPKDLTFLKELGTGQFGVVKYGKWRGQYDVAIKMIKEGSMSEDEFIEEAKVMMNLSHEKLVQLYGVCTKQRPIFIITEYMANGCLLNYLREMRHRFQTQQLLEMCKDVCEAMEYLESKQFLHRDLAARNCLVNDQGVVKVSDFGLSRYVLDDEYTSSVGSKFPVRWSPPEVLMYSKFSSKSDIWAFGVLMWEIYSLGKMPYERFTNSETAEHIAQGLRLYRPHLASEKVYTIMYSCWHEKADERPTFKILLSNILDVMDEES

PRP4 = target: T1, PRP4 (Homo sapiens, UniProt Q13523)
T1 construct: gene PRPF4B

PDGFRB = PDGFRB (Homo sapiens, UniProt P09619)
Sequence of PDGFRB (P09619 whole entry): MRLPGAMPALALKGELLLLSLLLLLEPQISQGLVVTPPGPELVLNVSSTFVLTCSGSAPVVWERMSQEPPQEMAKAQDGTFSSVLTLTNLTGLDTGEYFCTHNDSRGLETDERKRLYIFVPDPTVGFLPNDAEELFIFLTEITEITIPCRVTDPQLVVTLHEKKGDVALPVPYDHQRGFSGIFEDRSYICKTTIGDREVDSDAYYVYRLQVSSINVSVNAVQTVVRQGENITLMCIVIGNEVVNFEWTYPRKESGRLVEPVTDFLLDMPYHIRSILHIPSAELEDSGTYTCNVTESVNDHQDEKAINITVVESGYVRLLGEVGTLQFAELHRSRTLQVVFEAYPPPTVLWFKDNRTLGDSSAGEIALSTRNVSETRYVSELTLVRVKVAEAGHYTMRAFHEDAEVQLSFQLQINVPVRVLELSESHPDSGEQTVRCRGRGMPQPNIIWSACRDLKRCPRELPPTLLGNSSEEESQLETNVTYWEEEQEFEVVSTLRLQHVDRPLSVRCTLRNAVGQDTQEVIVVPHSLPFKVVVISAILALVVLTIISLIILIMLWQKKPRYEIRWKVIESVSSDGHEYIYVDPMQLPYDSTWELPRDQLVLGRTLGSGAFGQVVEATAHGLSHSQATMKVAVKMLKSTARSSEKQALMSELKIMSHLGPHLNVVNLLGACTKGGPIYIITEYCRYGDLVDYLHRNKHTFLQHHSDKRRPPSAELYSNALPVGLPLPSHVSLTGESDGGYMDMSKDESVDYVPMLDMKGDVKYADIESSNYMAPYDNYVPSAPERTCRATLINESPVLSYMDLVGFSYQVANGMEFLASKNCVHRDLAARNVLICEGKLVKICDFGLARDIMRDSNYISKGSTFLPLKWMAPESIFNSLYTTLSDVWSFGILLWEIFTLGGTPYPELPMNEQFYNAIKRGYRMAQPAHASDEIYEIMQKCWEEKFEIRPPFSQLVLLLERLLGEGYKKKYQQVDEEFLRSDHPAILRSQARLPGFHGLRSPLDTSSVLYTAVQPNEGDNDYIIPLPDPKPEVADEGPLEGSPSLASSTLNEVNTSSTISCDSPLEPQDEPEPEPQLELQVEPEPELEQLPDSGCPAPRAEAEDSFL

ACVR2B = ACVR2B (Homo sapiens, UniProt Q13705)
NEK6 = NEK6 (Homo sapiens, UniProt Q9HC98)
Sequence of NEK6 (Q9HC98 whole entry): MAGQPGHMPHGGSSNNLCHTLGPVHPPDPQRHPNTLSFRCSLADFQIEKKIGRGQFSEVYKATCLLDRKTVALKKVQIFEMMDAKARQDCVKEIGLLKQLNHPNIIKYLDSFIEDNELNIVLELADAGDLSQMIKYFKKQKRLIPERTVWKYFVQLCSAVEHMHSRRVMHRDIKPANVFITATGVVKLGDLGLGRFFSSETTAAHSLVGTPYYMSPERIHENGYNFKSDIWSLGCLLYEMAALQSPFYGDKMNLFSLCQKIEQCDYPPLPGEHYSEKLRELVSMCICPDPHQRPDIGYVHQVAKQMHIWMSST

FLT1 = FLT1 (Homo sapiens, UniProt P17948)
PRKCQ = PRKCQ (Homo sapiens, UniProt Q04759)
PAK7 = target: T2, PAK7 (Homo sapiens, UniProt Q9P286)
T2 construct: gene PAK5
T2 sequence (Q9P286 whole entry): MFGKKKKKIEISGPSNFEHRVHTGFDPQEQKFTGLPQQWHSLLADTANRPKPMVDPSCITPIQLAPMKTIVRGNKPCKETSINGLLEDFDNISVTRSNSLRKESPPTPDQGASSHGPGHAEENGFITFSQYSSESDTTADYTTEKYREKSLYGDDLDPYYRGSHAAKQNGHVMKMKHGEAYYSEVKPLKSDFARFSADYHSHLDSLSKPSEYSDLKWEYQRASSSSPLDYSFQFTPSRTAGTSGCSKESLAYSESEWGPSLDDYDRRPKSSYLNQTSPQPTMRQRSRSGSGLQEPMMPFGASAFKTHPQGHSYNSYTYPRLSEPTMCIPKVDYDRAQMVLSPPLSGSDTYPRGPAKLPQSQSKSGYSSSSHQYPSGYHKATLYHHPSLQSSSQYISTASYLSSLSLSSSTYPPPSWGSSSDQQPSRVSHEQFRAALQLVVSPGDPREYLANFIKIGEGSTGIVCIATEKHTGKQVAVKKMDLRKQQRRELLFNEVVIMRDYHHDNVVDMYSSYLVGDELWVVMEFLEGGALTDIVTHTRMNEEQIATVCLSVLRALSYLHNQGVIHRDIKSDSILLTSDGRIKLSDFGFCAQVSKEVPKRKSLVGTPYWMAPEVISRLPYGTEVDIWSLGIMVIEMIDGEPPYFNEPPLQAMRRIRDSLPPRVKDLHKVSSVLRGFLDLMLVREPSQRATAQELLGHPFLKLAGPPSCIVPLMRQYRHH

PIK3CA(Q546K) = PIK3CA(Q546K) (Homo sapiens, UniProt P42336, Q546K)
YANK2 = target: T3, YANK2 (Homo sapiens, UniProt Q9NY57)
T3 construct: gene STK32B

VPS34 = target: T4, VPS34 (Homo sapiens, UniProt Q8NEB9)
T4 construct: gene PIK3C3
T4 sequence (Q8NEB9 whole entry): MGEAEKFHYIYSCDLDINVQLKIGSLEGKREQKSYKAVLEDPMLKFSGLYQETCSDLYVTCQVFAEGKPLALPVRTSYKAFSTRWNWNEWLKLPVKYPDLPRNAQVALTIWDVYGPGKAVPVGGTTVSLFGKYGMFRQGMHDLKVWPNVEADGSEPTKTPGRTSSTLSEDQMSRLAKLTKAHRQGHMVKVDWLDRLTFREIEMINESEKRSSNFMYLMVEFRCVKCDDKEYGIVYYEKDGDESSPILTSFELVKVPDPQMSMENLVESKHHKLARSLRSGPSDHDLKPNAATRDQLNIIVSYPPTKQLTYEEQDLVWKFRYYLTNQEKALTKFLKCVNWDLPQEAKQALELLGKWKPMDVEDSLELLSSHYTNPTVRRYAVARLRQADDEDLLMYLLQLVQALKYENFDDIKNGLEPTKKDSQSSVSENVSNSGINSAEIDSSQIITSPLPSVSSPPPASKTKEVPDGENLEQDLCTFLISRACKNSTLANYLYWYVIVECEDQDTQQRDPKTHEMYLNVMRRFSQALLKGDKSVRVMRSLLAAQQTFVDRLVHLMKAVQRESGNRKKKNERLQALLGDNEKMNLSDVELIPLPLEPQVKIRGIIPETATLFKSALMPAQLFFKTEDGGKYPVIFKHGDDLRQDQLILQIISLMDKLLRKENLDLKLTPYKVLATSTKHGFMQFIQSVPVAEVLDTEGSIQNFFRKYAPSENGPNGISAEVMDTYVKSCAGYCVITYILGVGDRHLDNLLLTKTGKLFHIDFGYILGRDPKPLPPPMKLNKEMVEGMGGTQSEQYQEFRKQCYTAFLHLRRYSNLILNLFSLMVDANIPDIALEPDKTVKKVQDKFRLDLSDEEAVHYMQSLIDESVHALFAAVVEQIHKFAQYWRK

FLT3(N841I) = FLT3(N841I) (Homo sapiens, UniProt P36888, N841I)
BUB1 = BUB1 (Homo sapiens, UniProt O43683)
MARK2 = MARK2 (Homo sapiens, UniProt Q7KZI7)
EGFR(L858R,T790M) = EGFR(L858R,T790M) (Homo sapiens, UniProt P00533, L858R/T790M)

c1ccc2c(c1)Sc1ccccc1N2CCN1CCOCC1 [J54]
remaining binding (GSK3B): 100%
remaining binding (IGF1R): 56%
remaining binding (EGFR(G719S)): 99%
remaining binding (BTK): 97%
remaining binding (PRP4): 74%
remaining binding (PDGFRB): 100%
remaining binding (ACVR2B): 86%
remaining binding (NEK6): 92%
remaining binding (FLT1): 98%
remaining binding (PRKCQ): 96%
remaining binding (PAK7): 100%
remaining binding (PIK3CA(Q546K)): 100%
remaining binding (YANK2): 100%
remaining binding (VPS34): 86%
remaining binding (FLT3(N841I)): 99%
remaining binding (BUB1): 79%
remaining binding (MARK2): 99%
remaining binding (EGFR(L858R,T790M)): 100%
